# Results from patent US10080751B2, “Systems and methods for treating bacterial infection” (priority 2016, dated 2018).
# Like-named read-outs stand apart in the source and are kept apart here.
# What was measured:
# M. catarrhalis = assay: MIC with/without bovine pulmonary surfactant, M. catarrhalis; type: cell-based, Moraxella catarrhalis; conditions: for MICRZ, Resazurin: +BPS: 2.5% v/v BPS
# Procedure: (§1) Clinical isolates were identified by the submitting laboratories and confirmed by JMI Laboratories using standard bacteriologic algorithms and methodologies, including Matrix-Assisted Laser Desorption Ionization-Time Of Flight Mass Spectrometry (MALDI-TOF MS). When necessary, MALDI-TOF MS was performed using the Bruker Daltonics MALDI Biotyper (Billerica, Mass., USA), following manufacturer's instructions. Isolates selected were bacterial species commonly associated with pneumonia. […] 2.2 Susceptibility testing
# (§2) Antibacterial susceptibility testing was measured by JMI Labs (North Liberty, Iowa, USA). […] These clinical isolates were collected from US (n=4), Mexico (n=2), and Italy (n=1). Susceptibility testing was performed by broth microdilution in accordance with the Clinical and Laboratory and Standards Institute (CLSI) guidelines M07-A10 (2015) and the standard operating procedures at JMI laboratories. Minimum inhibitory concentrations (MICs) were based on CLSI criteria (2015). There are no published breakpoints for iclaprim. E. coli, K. pneumoniae, M. catarrhalis, E. faecalis, and S. aureus were tested in cation-adjusted Mueller-Hinton broth (CA-MHB). S. pneumoniae were tested in CA-MHB supplemented with 2.5-5% lysed horse blood, and H. influenza were tested in Haemophilus test medium. Quality control and interpretation of results were performed in accordance with CLSI M100-S26 (2016) methods. QC ranges for iclaprim were those approved by CLSI and published in M100-S26 (2016). Iclaprim and comparator antibiotic MIC results were within the CLSI published ranges against E. coli ATCC 25922, E. faecalis ATCC 29212, E. faecalis ATCC 33186, H. influenzae ATCC 49247, K. pneumoniae ATCC 700603 (ESBL phenotype), S. aureus ATCC 29213, and S. pneumoniae ATCC 49619. Isolates were tested with MIC panels (ThermoFisher Scientific, Cleveland, Ohio, USA) of comparator antibiotics (daptomycin and levofloxacin).
# (§3) Because bovine pulmonary surfactant can introduce cloudiness to the MIC testing media, antimicrobial growth inhibition was also evaluated using the colorimetric metabolic indicator resazurin (Camlab Ltd., Cambridge, UK). […] S. pneumoniae panels were omitted from resazurin analysis because the color change was obscured by the lysed horse blood present in the test medium. Growth inhibition was then evaluated as a visible color change from blue (no growth) to pink (robust growth) and recorded as a MICRZ value.
# (§4) The MICs of iclaprim, levofloxacin, and daptomycin were determined against Gram-positive and Gram-negative isolates.
# (§5) A new vial of bovine pulmonary surfactant (BPS; Survanta®; Abbott Laboratories, Columbus, Ohio) was utilized for each independent experiment. Each vial was mixed thoroughly and a 100 μL aliquot was spread on an agar plate, which was incubated overnight to confirm sterility. […] The concentration of surfactant was expressed in terms of percent volume of Survanta® suspension, which consisted of phospholipid (25 mg/mL) and surfactant proteins (<1 mg/mL) in 0.9% sodium chloride solution (Goerke, 1998). MICs of daptomycin were determined in CAMHB with the Ca^2+ content adjusted to 50 mg/L.
# E. coli = assay: MIC with/without bovine pulmonary surfactant, E. coli; type: cell-based, Escherichia coli; conditions: E. coli ATCC 25922
# Procedure: as §1, §2, §3, §4
# A new vial of bovine pulmonary surfactant (BPS; Survanta®; Abbott Laboratories, Columbus, Ohio) was utilized for each independent experiment. […] MICs of daptomycin were determined in CAMHB with the Ca^2+ content adjusted to 50 mg/L.
# K. pneumoniae = assay: MIC with/without bovine pulmonary surfactant, K. pneumoniae; type: cell-based, Klebsiella pneumoniae; conditions: for MIC: Klebsiella pneumoniae
# Procedure: as §1, §2, §3, §4, §5
# H. influenzae = assay: MIC with/without bovine pulmonary surfactant, H. influenzae; type: cell-based, Haemophilus influenzae; conditions: for MIC: Haemophilus influenzae
# Procedure: as §1, §2, §3, §4, §5
# E. faecalis = assay: MIC with/without bovine pulmonary surfactant, E. faecalis; type: cell-based, Enterococcus faecalis; conditions: for MIC: Enterococcus faecalis
# Procedure: as §1, §2, §3, §4, §5
# S. pneumoniae = assay: MIC with/without bovine pulmonary surfactant, S. pneumoniae; type: cell-based; conditions: Streptococcus pneumoniae
# Procedure: as §1, §2, §3, §4, §5
# S. aureus = assay: MIC with/without bovine pulmonary surfactant, S. aureus; type: cell-based, Staphylococcus aureus; conditions: for MICRZ, Resazurin: +BPS: 2.5% v/v BPS; for MICRZ, Resazurin: no BPS
# Procedure: as §1, §2, §3, §4, §5
# [1] = tested on: nosocomial pneumonia suspected or confirmed to be caused by Gram-positive pathogens; conditions: intent-to-treat, test of cure visit; vancomycin 1 g IV q12h; cited from earlier work
# S. aureus strain AH1252 = assay: Neutropenic rat lung infection model; type: in vivo; conditions: iclaprim 80 mg/kg
# Procedure: S. aureus strain AH1252, a thymidine knockout of the MRSA wild type AW6 strain, was utilized for this study. The bacterial strain was diluted in a 2% alginate buffer, which was added dropwise in a ratio of 1:5 into […] to form alginate beads. The alginate beads reduce the efficacy of bacterial clearance similar to that seen in the cystic fibrosis population. A 5.25×10^4 bacterial inoculum was administered to groups of 9 rats, intratracheally, with prepared alginate bacteria suspensions, under isoflurane anesthesia. […] Twelve hours after the last treatment, rats were euthanized and lungs collected for CFU determination.
# [2] = S. aureus Clinical Isolate 825189
# [3] = SC/BID 3 days, vancomycin 50 mg/kg
compound,measurement,setting,value
C[C@H]1COc2c(N3CCN(C)CC3)c(F)cc3c(=O)c(C(=O)O)cn1c23 [Levofloxacin],"MICRZ, Resazurin: +BPS",M. catarrhalis; M. catarrhalis Clinical Isolate 893806,0.06 µg/mL
same,"MICRZ, Resazurin","M. catarrhalis; M. catarrhalis Clinical Isolate 893806, no BPS",0.06 µg/mL
same,"MICRZ, Resazurin: +BPS",M. catarrhalis; M. catarrhalis Clinical Isolate 893807,0.06 µg/mL
same,"MICRZ, Resazurin","M. catarrhalis; M. catarrhalis Clinical Isolate 893807, no BPS",0.06 µg/mL
same,MIC,"M. catarrhalis; Moraxella catarrhalis, M. catarrhalis Clinical Isolate 893806, no BPS",0.06 µg/mL
same,"MICRZ, Resazurin: +BPS",E. coli; 2.5% v/v BPS,0.03 µg/mL
same,"MICRZ, Resazurin",E. coli; no BPS,0.015 µg/mL
same,"MICRZ, Resazurin: +BPS","K. pneumoniae; K. pneumoniae ATCC 700603, 2.5% v/v BPS",1 µg/mL
same,"MICRZ, Resazurin","K. pneumoniae; K. pneumoniae ATCC 700603, no BPS",1 µg/mL
same,"MICRZ, Resazurin: +BPS","K. pneumoniae; K. pneumoniae Clinical Isolate 858055, 2.5% v/v BPS",0.06 µg/mL
same,"MICRZ, Resazurin","K. pneumoniae; K. pneumoniae Clinical Isolate 858055, no BPS",0.06 µg/mL
same,MIC,"K. pneumoniae; ATCC700603, K. pneumoniae ATCC 700603, 2.5% v/v BPS, read-out: MIC, CLSI: +BPS",1 µg/mL
same,MIC,"K. pneumoniae; ATCC700603, K. pneumoniae ATCC 700603, no BPS, read-out: MIC, CLSI",1 µg/mL
same,MIC,"K. pneumoniae; K. pneumoniae Clinical Isolate 858055, 2.5% v/v BPS, read-out: MIC, CLSI: +BPS",0.12 µg/mL
same,MIC,"K. pneumoniae; K. pneumoniae Clinical Isolate 858055, no BPS, read-out: MIC, CLSI",0.06 µg/mL
same,"MICRZ, Resazurin: +BPS","H. influenzae; H. influenzae ATCC 49247, 2.5% v/v BPS",0.03 µg/mL
same,"MICRZ, Resazurin","H. influenzae; H. influenzae ATCC 49247, no BPS",0.03 µg/mL
same,"MICRZ, Resazurin: +BPS","H. influenzae; H. influenzae Clinical Isolate 824704, 2.5% v/v BPS",0.015 µg/mL
same,"MICRZ, Resazurin","H. influenzae; H. influenzae Clinical Isolate 824704, no BPS",0.015 µg/mL
same,MIC,"H. influenzae; ATCC49247, H. influenzae ATCC 49247, 2.5% v/v BPS, read-out: MIC, CLSI: +BPS",0.03 µg/mL
same,MIC,"H. influenzae; ATCC49247, H. influenzae ATCC 49247, no BPS, read-out: MIC, CLSI",0.03 µg/mL
same,MIC,"H. influenzae; H. influenzae Clinical Isolate 824704, 2.5% v/v BPS, read-out: MIC, CLSI: +BPS",0.015 µg/mL
same,MIC,"H. influenzae; H. influenzae Clinical Isolate 824704, no BPS, read-out: MIC, CLSI",0.015 µg/mL
same,"MICRZ, Resazurin: +BPS","E. faecalis; E. faecalis ATCC 29212, 2.5% v/v BPS",1 µg/mL
same,"MICRZ, Resazurin","E. faecalis; E. faecalis ATCC 29212, no BPS",1 µg/mL
same,"MICRZ, Resazurin: +BPS","E. faecalis; E. faecalis ATCC 33186, 2.5% v/v BPS",2 µg/mL
same,"MICRZ, Resazurin","E. faecalis; E. faecalis ATCC 33186, no BPS",4 µg/mL
same,MIC,"E. faecalis; ATCC29212, E. faecalis ATCC 29212, 2.5% v/v BPS, read-out: MIC, CLSI: +BPS",1 µg/mL
same,MIC,"E. faecalis; ATCC29212, E. faecalis ATCC 29212, no BPS, read-out: MIC, CLSI",1 µg/mL
same,MIC,"E. faecalis; ATCC33186, E. faecalis ATCC 33186, 2.5% v/v BPS, read-out: MIC, CLSI: +BPS",1 µg/mL
same,MIC,"E. faecalis; ATCC33186, E. faecalis ATCC 33186, no BPS, read-out: MIC, CLSI",4 µg/mL
same,MIC,"S. pneumoniae; ATCC49619, S. pneumoniae ATCC 49619, 2.5% v/v BPS, read-out: MIC, CLSI: +BPS",1 µg/mL
same,MIC,"S. pneumoniae; ATCC49619, S. pneumoniae ATCC 49619, no BPS, read-out: MIC, CLSI",1 µg/mL
same,MIC,"S. pneumoniae; S. pneumoniae Clinical Isolate 818757, 2.5% v/v BPS, read-out: MIC, CLSI: +BPS",1 µg/mL
same,MIC,"S. pneumoniae; S. pneumoniae Clinical Isolate 818757, no BPS, read-out: MIC, CLSI",1 µg/mL
same,MIC,"S. pneumoniae; S. pneumoniae Clinical Isolate 825175, 2.5% v/v BPS, read-out: MIC, CLSI: +BPS",1 µg/mL
same,MIC,"S. pneumoniae; S. pneumoniae Clinical Isolate 825175, no BPS, read-out: MIC, CLSI",1 µg/mL
same,"MICRZ, Resazurin: +BPS",S. aureus; S. aureus ATCC 29213,0.12 µg/mL
same,"MICRZ, Resazurin",S. aureus; S. aureus ATCC 29213,0.25 µg/mL
same,"MICRZ, Resazurin: +BPS",S. aureus; [2],0.25 µg/mL
same,"MICRZ, Resazurin",S. aureus; [2],0.25 µg/mL
CN[C@H](CC(C)C)C(=O)N[C@H]1C(=O)N[C@@H](CC(N)=O)C(=O)N[C@H]2C(=O)N[C@H]3C(=O)N[C@H](C(=O)N[C@H](C(=O)O)c4cc(O)cc(O)c4-c4cc3ccc4O)[C@H](O)c3ccc(c(Cl)c3)Oc3cc2cc(c3O[C@@H]2O[C@H](CO)[C@@H](O)[C@H](O)[C@H]2O[C@H]2C[C@](C)(N)[C@H](O)[C@H](C)O2)Oc2ccc(cc2Cl)[C@H]1O [Vancomycin],cure rate,[1],52.2%
same,72 hour lungs (CFU/gram of lung) log10CFU/Lung,S. aureus strain AH1252; [3],5.30 log10CFU/Lung
same,Change in CFUs from 2 hr.,S. aureus strain AH1252; [3],2.18 log 10 CFU
same,Survival >60 hrs,"S. aureus strain AH1252; SC/BID 3 days, vancomycin 50 mg/kg, 9 rats",8/9
same,survival compared to the infection controls,S. aureus strain AH1252; vancomycin 50 mg/kg SC/BID,increased survival
same,Change in CFUs from 72 hr.,"S. aureus strain AH1252; vs 72 hr infection controls, vancomycin 50 mg/kg SC/BID",−3.38 log 10 CFU
